“Also recorded” adds a separate entry of the source.
Key:
[1] = antioxidant capacity by the ORAC method (Fluorescein, AAPH); type: biochemical
Method: The 3,5-dihydroxy-4-methoxybenzyl alcohol can be separated and purified by the following operation. First, Trolox (Wako) or a test sample of 0.05 mL dissolved in a mixed solution of 0.075 mol/L phosphoric acid buffer solution 2.3 of 5 mL, 6.3×10^−7 mol/L Fluorescein (fluorescent probe) of 0.3 mL, and 7% (w/v) methylated β-cyclodextrin (Wako) was warmed for 10 minutes at 37° C.
1.28×10^−1 mol/L2,2′-azobis(2-amidinopropane)dihydrochloride (AAPH, Wako), which has been preliminarily warmed at 37° C., was added by 0.3 mL. For example, while stirring with a stirrer, a fluorescence intensity (excitation wavelength: 493 nm, fluorescence wavelength: 515 nm) was measured for every 10 seconds and up to 5,000 seconds by a spectrofluorophotometer (FP-6500 , JASCO, Tokyo).
An antioxidant activity is indicated by length of period (for example, the horizontal axis in FIG. 5) during which a measured fluorescence value (the vertical axis in the same drawing) at the start of measurement is maintained. The longer the period, the stronger the antioxidant activity is.
Methods for measuring an antioxidant substance in a food product have been variously reported. However, all the methods have a drawback and an advantage, and therefore the method has not been standardized or determined as an official method (confirmation of validity of an analysis value). However, in the United States of America, a supplement and a beverage with an ORAC value have already been on the market. This trend is becoming a world standard. Accordingly, in this working example, the antioxidative potency is measured by the ORAC method.
A research conference that studies on employing the ORAC method as an official method (Antioxidant-Unit Research Association) has already been founded in Japan. The ORAC method has advantages in that both a soluble sample and a liposoluble sample can be measured and the above-described any organic solvent fractions can be measured. […]

normal human LDL = assay: metal oxidation of normal human LDL by copper sulfate, quantitated by TBARS method; type: biochemical
Method: When normal human LDL is oxidized by copper sulfate, 3,5-dihydroxy-4-methoxybenzyl alcohol was added, and the degree of oxidation of the LDL was quantitated by a TBARS method (see FIG. 11). […] The Lag-time refers to a period where a rise of a curve is not observed. It is determined that, as the time increases, antioxidant activity occurs. However, the lag-time was extended by dose dependency. The lag-time was 2 hours for addition of 270 μM, 4 hours for addition of 360 μM, and 5 hours for addition of 450 μM and 540 μM.

[2] = tested on: cell line (C3A) in a liver; assay: oxidation of DPPP-labeled hepatocyte culture (C3A) by AAPH; type: cell-based; conditions: cultured for 5 days with the substance, compared with cell without the substance
Method: FIG. 12 illustrates the principle of the fluorescence of the diphenyl-1-pyrenlphosphine (DPPP). Using the fluorescent dye, the degree of oxidation of a cell line (C3A) in a liver was observed.
A cell where the 3,5-dihydroxy-4-methoxybenzyl alcohol according to the present invention had been added was cultured for 5 days. The cell labeled by DPPP was oxidized by 2,2′-azobis (2-methylpropionamidine)dihydrochloide, and then the fluorescence intensity of the DPPP in each cell was measured. […] It was confirmed that the antioxidant substance, 3,5-dihydroxy-4-methoxybenzyl alcohol, reduced the oxidation (see FIG. 13).

[3] = properties of the separated and purified substance (solubility); type: physicochemical
From the text: Here, the properties of 3,5-dihydroxy-4-methoxybenzyl alcohol, which was separated and purified, will be described. […] It was confirmed that the 3,5-dihydroxy-4-methoxybenzyl alcohol was a phenolic compound as illustrated in FIG. 8.

COc1c(O)cc(CO)cc1O [3,5-dihydroxy-4-methoxybenzyl alcohol]
ORAC value relative to that of L(+)-ascorbic acid [1]: three times
antioxidant capacity / antioxidant activity observed by the ORAC method ([1]; length of period during which the fluorescence value is maintained): high antioxidant activity was observed; also recorded: high antioxidant capacity between those of a chlorogenic acid and L(+)- the ascorbic acid
ORAC value ([1]; synthesized product): 1.47±0.40 μmoITE/μmol
lag-time of LDL oxidation (normal human LDL; addition of 270 μM): 2 h
lag-time of LDL oxidation (normal human LDL; addition of 360 μM): 4 h
lag-time of LDL oxidation (normal human LDL; addition of 450 μM): 5 h
lag-time of LDL oxidation (normal human LDL; addition of 540 μM): 5 h
effect on metal oxidation of the LDL (normal human LDL; copper sulfate, TBARS): reduced the metal oxidation of the LDL; also recorded: showed an antioxidant capacity in a dose-dependent manner
lag-time of LDL oxidation (normal human LDL; substance added at 180 μM): lag-time was not observed
fluorescence intensity of DPPP / oxidation of C3A cell [2]: concentration dependence and low fluorescence intensity; also recorded: significantly reduced oxidation of a C3A cell; also recorded: showed an antioxidant capacity in a dose-dependent manner
solubility [3]: show lipid solubility and water solubility

— US9012513B2, “Antioxidant, antioxidant composition and production method therefor” (Watanabe Oyster Laboratory Co., Ltd., priority 2011, dated 2015)
